# Reference: PubChem BioAssay (NCI)
#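 Test compounds were applied to cells in 96-well plates for 48 hours at 5 doses. Here, GI50 denotes the concentration required for 50% inhibition of growth. TGI: concentration producing complete growth inhibition.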
# How the values were obtained:
# Assay in all cases: DTP human tumour cell line panel, 48 h
# [1] = tested on: MDA-N
# [2] = tested on: SNB-75 CNS
# [3] = tested on: SK-MEL-5 melanoma
# [4] = tested on: 786-0 renal
# [5] = tested on: UACC-62 melanoma
# [6] = tested on: SW-620 colon
# [7] = tested on: SF-268 CNS
# [8] = tested on: SNB-19 CNS
# [9] = tested on: DU-145 prostate
# [10] = tested on: A549 NSCLC
# [11] = tested on: RXF-631 renal
# [12] = tested on: HT29 colon
# [13] = tested on: SK-MEL-2 melanoma
# [14] = tested on: LOX IMVI melanoma
# [15] = tested on: SR leukemia
# [16] = tested on: SK-MEL-28 melanoma
# [17] = tested on: M14 melanoma
# [18] = tested on: HCT-116 colon
# [19] = tested on: SNB-78 CNS
# [20] = tested on: TK-10 renal
# [21] = tested on: ACHN renal
# [22] = tested on: CCRF-CEM leukemia
# [23] = tested on: MALME-3M melanoma
# [24] = tested on: SF-539 CNS
# [25] = tested on: UACC-257 melanoma
# [26] = tested on: K-562 leukemia
# [27] = tested on: NCI-H460 lung
# [28] = tested on: SF-295 CNS
# [29] = tested on: U251 CNS
# [30] = tested on: COLO 205 colon
# [31] = tested on: T-47D breast
# [32] = tested on: MOLT-4 leukemia
# [33] = tested on: OVCAR-5 ovarian
# [34] = tested on: XF 498 CNS
# [35] = tested on: CAKI-1 renal
# [36] = tested on: NCI-H226 lung
# [37] = tested on: HCT-15 colon
# [38] = tested on: KM20L2 colon
# [39] = tested on: SK-OV-3 ovarian
# [40] = tested on: UO-31 renal
# [41] = tested on: PC-3 prostate
# [42] = tested on: DLD-1 colon
# [43] = tested on: NCI/ADR-RES ovarian
# [44] = tested on: MDA-MB-435
# [45] = tested on: A498 renal
# [46] = tested on: LXFL 529 NSCLC
# [47] = tested on: EKVX NSCLC
# [48] = tested on: HOP-18 NSCLC
# [49] = tested on: RXF 393 renal
# [50] = tested on: M19-MEL melanoma
# [51] = tested on: HS 578T breast
# [52] = tested on: NCI-H522 lung
# [53] = tested on: OVCAR-8 ovarian
# [54] = tested on: RPMI-8226 leukemia
# [55] = tested on: BT-549 breast
# [56] = tested on: SN12C renal
# [57] = tested on: MCF7 breast
# [58] = tested on: OVCAR-3 ovarian
# [59] = tested on: NCI-H23 lung
# [60] = tested on: IGROV1 ovarian
# [61] = tested on: HOP-62 NSCLC
# [62] = tested on: HCC-2998 colon
# [63] = tested on: HL-60(TB) leukemia
# [64] = tested on: OVCAR-4 ovarian
# [65] = tested on: DMS 114 small cell lung
# [66] = tested on: HOP-92 NSCLC
structure (smiles),measurement,setting,value
COC1/C=C\C=C(/C)C(=O)NC2=CC(=O)C(N)=C(CC(C)CC(OC)C(O)C(C)C=C(C)C1OC(N)=O)C2=O (stereo not drawn),GI50,[1],0.0829 µM
same,TGI,[1],12.6 µM
same,TGI,[2],11.3 µM
same,TGI,[3],15.8 µM
same,TGI,[4],> 100 µM
same,GI50,[5],0.0322 µM
same,TGI,[5],18.4 µM
same,GI50,[6],0.0468 µM
same,TGI,[6],17.4 µM
same,TGI,[7],68.6 µM
same,TGI,[8],93.7 µM
same,GI50,[9],0.067 µM
same,TGI,[9],31.7 µM
same,TGI,[10],40.9 µM
same,TGI,[11],> 100 µM
same,GI50,[12],0.0337 µM
same,TGI,[12],> 63.7 µM
same,TGI,[13],14.9 µM
same,GI50,[14],0.0761 µM
same,TGI,[14],1.55 µM
same,GI50,[15],< 0.01 µM
same,TGI,[15],1.64 µM
same,GI50,[16],0.0513 µM
same,TGI,[16],> 73.8 µM
same,GI50,[17],0.0379 µM
same,TGI,[17],33.4 µM
same,TGI,[18],25.3 µM
same,TGI,[19],91.1 µM
same,TGI,[20],> 77.2 µM
same,TGI,[21],83.5 µM
same,TGI,[22],35.8 µM
same,TGI,[23],15.4 µM
same,GI50,[24],0.0397 µM
same,TGI,[24],> 44.4 µM
same,TGI,[25],14.5 µM
same,GI50,[26],0.0982 µM
same,TGI,[26],> 69.6 µM
same,GI50,[27],0.0459 µM
same,TGI,[27],> 54.7 µM
same,TGI,[28],> 62.2 µM
same,GI50,[29],0.0822 µM
same,TGI,[29],> 48.9 µM
same,GI50,[30],0.0614 µM
same,TGI,[30],0.0507 µM
same,TGI,[31],33.7 µM
same,TGI,[32],48.7 µM
same,TGI,[33],39.7 µM
same,TGI,[34],24.8 µM
same,TGI,[35],> 89.8 µM
same,TGI,[36],> 100 µM
same,TGI,[37],31.5 µM
same,TGI,[38],0.0192 µM
same,GI50,[39],0.0822 µM
same,TGI,[39],> 100 µM
same,TGI,[40],40.4 µM
same,TGI,[41],> 75.7 µM
same,TGI,[42],17.7 µM
same,TGI,[43],> 100 µM
same,GI50,[44],0.051 µM
same,TGI,[44],14.9 µM
same,TGI,[45],> 96.4 µM
same,TGI,[46],> 100 µM
same,TGI,[47],63 µM
same,TGI,[48],32.4 µM
same,TGI,[49],> 94.7 µM
same,TGI,[50],12.5 µM
same,TGI,[51],59.4 µM
same,TGI,[52],0.392 µM
same,TGI,[53],33.9 µM
same,TGI,[54],65.4 µM
same,GI50,[55],0.0806 µM
same,TGI,[55],> 45.2 µM
same,TGI,[56],29 µM
same,TGI,[57],37.6 µM
same,TGI,[58],20.2 µM
same,GI50,[59],0.0375 µM
same,TGI,[59],21.5 µM
same,TGI,[60],25.9 µM
same,TGI,[61],> 78 µM
same,TGI,[62],1.74 µM
same,TGI,[63],19.3 µM
same,TGI,[64],36.9 µM
Cc1nc2ccccn2c1N=Nc1ccc(C(=O)NN)cc1,TGI,[3],69.1 µM
same,TGI,[4],> 100 µM
same,TGI,[5],> 100 µM
same,TGI,[6],> 100 µM
same,TGI,[7],> 100 µM
same,TGI,[8],> 100 µM
same,TGI,[10],> 100 µM
same,TGI,[11],> 100 µM
same,TGI,[12],> 100 µM
same,TGI,[14],> 100 µM
same,TGI,[16],> 100 µM
same,TGI,[17],> 100 µM
same,TGI,[19],> 100 µM
same,TGI,[20],> 100 µM
same,TGI,[21],> 100 µM
same,TGI,[22],30.6 µM
same,TGI,[23],> 100 µM
same,TGI,[24],> 100 µM
same,TGI,[25],> 100 µM
same,TGI,[26],> 100 µM
same,TGI,[28],> 100 µM
same,TGI,[29],> 100 µM
same,TGI,[30],> 100 µM
same,TGI,[32],40.8 µM
same,TGI,[33],> 100 µM
same,TGI,[34],> 100 µM
same,TGI,[65],> 100 µM
same,TGI,[35],> 100 µM
same,TGI,[36],> 100 µM
same,TGI,[37],> 100 µM
same,TGI,[38],> 100 µM
same,TGI,[39],> 100 µM
same,TGI,[40],> 100 µM
same,TGI,[42],> 100 µM
same,TGI,[45],> 100 µM
same,TGI,[46],> 100 µM
same,TGI,[47],> 100 µM
same,TGI,[48],> 100 µM
same,TGI,[49],60.1 µM
same,TGI,[50],> 100 µM
same,TGI,[53],> 100 µM
same,TGI,[54],> 100 µM
same,TGI,[56],> 100 µM
same,TGI,[58],> 100 µM
same,TGI,[59],> 100 µM
same,TGI,[60],89.7 µM
same,TGI,[61],> 100 µM
same,TGI,[62],> 100 µM
same,TGI,[63],> 100 µM
same,TGI,[66],> 100 µM
same,TGI,[64],> 100 µM
